Results published in patent US20250122183A1 (Pfizer Inc., priority 2023, published 2025).
Where two headings read alike, the source gives them in different places.

Tests used:
[1] = biological target: KAT6A Full length enzyme (Homo sapiens (Human), UniProt Q92794); test: KAT6A assay (SAMDI-MS acetylation of H3 1-21 peptide); assay type: biochemical; conditions: replicate number in parentheses
[2] = biological target: KAT7+JADE1+EAF6+ING5 4 protein complex (Homo sapiens (Human), UniProt O95251); test: KAT7 JADE1 assay (SAMDI-MS acetylation of H3 1-21 peptide); assay type: biochemical; conditions: replicate number in parentheses
[3] = read-out: KAT6A Ki (nM) (replicate)
[4] = read-out: KAT7 JADE1 Ki (nM) (replicate)
[5] = Morrison equation fit, read-out: KAT6A Ki (nM) (replicate number)
[6] = Morrison equation fit, read-out: KAT7 JADE1 Ki (nM) (replicate number)

Sequence of KAT6A Full length enzyme (Q92794 other isoform, or with tags, fused parts or gaps): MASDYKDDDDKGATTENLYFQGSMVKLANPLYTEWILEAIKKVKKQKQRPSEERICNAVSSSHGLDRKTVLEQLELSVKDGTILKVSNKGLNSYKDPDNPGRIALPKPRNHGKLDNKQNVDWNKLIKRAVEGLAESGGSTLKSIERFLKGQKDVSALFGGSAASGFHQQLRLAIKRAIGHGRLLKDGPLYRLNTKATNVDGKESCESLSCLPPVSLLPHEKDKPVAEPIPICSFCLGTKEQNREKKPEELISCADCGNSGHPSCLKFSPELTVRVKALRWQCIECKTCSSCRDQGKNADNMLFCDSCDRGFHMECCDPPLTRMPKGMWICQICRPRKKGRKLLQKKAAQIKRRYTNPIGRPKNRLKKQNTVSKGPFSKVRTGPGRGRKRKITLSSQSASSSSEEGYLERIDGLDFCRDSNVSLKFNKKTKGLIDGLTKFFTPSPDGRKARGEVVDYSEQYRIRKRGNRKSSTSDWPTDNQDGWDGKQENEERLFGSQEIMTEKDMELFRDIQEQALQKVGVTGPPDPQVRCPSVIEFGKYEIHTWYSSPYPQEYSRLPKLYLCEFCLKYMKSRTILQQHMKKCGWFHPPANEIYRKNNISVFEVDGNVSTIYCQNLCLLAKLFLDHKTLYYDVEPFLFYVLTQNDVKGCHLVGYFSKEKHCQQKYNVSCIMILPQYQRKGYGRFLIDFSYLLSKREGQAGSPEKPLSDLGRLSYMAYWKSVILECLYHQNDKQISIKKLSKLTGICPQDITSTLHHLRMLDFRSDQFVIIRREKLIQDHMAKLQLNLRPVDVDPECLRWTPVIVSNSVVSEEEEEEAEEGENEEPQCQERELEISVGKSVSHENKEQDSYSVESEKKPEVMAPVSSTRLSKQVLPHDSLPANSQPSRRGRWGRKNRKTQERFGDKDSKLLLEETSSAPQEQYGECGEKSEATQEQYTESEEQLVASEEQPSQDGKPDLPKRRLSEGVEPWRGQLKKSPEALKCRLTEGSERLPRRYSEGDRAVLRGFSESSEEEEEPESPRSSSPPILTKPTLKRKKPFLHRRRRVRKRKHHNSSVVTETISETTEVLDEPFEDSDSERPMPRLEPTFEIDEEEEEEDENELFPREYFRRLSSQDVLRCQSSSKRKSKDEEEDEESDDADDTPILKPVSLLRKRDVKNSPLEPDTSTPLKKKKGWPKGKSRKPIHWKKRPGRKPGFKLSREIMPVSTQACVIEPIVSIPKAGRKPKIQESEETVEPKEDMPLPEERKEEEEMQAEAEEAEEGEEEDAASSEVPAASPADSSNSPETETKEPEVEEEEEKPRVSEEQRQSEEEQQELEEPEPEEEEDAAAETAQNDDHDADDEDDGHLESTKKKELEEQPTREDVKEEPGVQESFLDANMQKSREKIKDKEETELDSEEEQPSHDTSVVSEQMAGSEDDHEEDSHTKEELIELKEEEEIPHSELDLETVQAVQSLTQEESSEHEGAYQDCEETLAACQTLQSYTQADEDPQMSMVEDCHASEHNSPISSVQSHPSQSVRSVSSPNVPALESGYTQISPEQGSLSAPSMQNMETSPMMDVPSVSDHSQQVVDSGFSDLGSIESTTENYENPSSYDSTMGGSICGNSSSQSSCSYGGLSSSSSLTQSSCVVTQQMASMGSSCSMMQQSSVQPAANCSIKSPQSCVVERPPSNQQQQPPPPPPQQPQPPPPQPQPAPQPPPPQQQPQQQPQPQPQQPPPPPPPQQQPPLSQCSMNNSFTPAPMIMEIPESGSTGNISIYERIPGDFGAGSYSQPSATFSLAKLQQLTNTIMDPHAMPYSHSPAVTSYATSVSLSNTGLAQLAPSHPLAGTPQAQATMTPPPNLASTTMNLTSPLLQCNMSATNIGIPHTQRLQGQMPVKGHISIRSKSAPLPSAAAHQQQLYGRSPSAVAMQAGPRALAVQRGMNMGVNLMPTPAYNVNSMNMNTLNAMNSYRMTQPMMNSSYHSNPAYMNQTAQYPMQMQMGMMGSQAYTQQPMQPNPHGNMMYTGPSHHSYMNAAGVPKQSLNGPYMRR

Compound	Ki [1, 3] [nM]	Ki [2, 4] [nM]	Ki [1, 5] [nM]	Ki [2, 6] [nM]
COCC(OC)c1cc(OC)c(S(=O)(=O)Nc2noc3cc(Nc4cc(C5CC5)[nH]n4)c(OC)cc23)c(OC)c1 (single isomer, unassigned) [Example 275, N-{6-[(5-cyclopropyl-1H-pyrazol-3-yl)amino]-5-methoxy-1,2-benzoxazol-3-yl}-4-(1,2-dimethoxyethyl)-2,6-dimethoxybenzene-1-sulfonamide]	1.1	9.7	–	–
CCN1CCOC(c2cc(OC)c(S(=O)(=O)Nc3noc4cc(Nc5cc(C6CC6)n[nH]5)c(OC)cc34)c(OC)c2)C1 (single isomer, unassigned) [Example 156, N-{6-[(3-cyclopropyl-1 H-pyrazol-5-yl)amino]-5-methoxy-1,2-benzoxazol-3-yl}-4-(4-ethylmorpholin-2-yl)-2,6-dimethoxybenzene-1-sulfonamide]	–	–	0.8	4
COc1cc2c(NS(=O)(=O)c3c(OC)cc(-c4cc5n(n4)CCOC5)cc3OC)noc2cc1Nc1cc(C2CC2)n[nH]1 [Example 220, N-{6-[(3-cyclopropyl-1H-pyrazol-5-yl)amino]-5-methoxy-1,2-benzoxazol-3-yl}-4-(6,7-dihydro-4H-pyrazolo[5,1-c][1,4]oxazin-2-yl)-2,6-dimethoxybenzene-1-sulfonamide]	–	–	0.4	4
COc1cc2c(NS(=O)(=O)c3c(OC)cc(C4CC(F)CCN4C)cc3OC)noc2cc1Nc1cc(C2CC2)[nH]n1 (stereo not drawn) [Example 192, N-{6-[(5-cyclopropyl-1 H-pyrazol-3-yl)amino]-5-methoxy-1,2-benzoxazol-3-yl}-4-trans(4-fluoro-1-methylpiperidin-2-yl)-2,6-dimethoxybenzene-1-sulfonamide]	–	–	2.4	22.2
CCOc1cc(C)c(F)cc1S(=O)(=O)Nc1noc2cc(Nc3n[nH]cc3F)c(OC)cc12 [Example 139, 2-Ethoxy-5-fluoro-N-{6-[(4-fluoro-1 H-pyrazol-3-yl)amino]-5-methoxy-1,2-benzoxazol-3-yl}-4-methylbenzene-1-sulfonamide]	–	–	0.1	128
COc1cc2c(NS(=O)(=O)c3c(OC)cc(C4C[C@H](C)CN4C)cc3OC)noc2cc1Nc1cc(C2CC2)n[nH]1 (stereo partly drawn) [Example 182, N-{6-[(3-cyclopropyl-1H-pyrazol-5-yl)amino]-5-methoxy-1,2-benzoxazol-3-yl}-4-[(4S)-1,4-dimethylpyrrolidin-2-yl]-2,6-dimethoxybenzene-1-sulfonamide]	–	–	0.8	6.4
COc1cc2c(NS(=O)(=O)c3c(OC)cc(C4CCO4)cc3OC)noc2cc1Nc1cc(C2CC2)n[nH]1 (stereo not shown) [Example 276, N-{6-[(3-cyclopropyl-1H-pyrazol-5-yl)amino]-5-methoxy-1,2-benzoxazol-3-yl}-2,6-dimethoxy-4-(oxetan-2-yl)benzene-1-sulfonamide]	1.3	16.8	–	–
COc1cc2c(NS(=O)(=O)c3c(OC)cc(-c4ncc(N(C)C)cn4)cc3OC)noc2cc1Nc1cc(C2CC2)n[nH]1 [Example 218, N-{6-[(3-cyclopropyl-1H-pyrazol-5-yl)amino]-5-methoxy-1,2-benzoxazol-3-yl}-4-[5-(dimethylamino)pyrimidin-2-yl]-2,6-dimethoxybenzene-1-sulfonamide]	–	–	0.1	0.4
COc1cc2c(NS(=O)(=O)c3c(OC)cc(CN4CCC[C@H](C)C4)cc3OC)noc2cc1Nc1cc(C2CC2)n[nH]1 [Example 195, N-{6-[(3-cyclopropyl-1H-pyrazol-5-yl)amino]-5-methoxy-1,2-benzoxazol-3-yl}-2,6-dimethoxy-4-{[(3S)-3-methylpiperidin-1-yl]methyl}benzene-1-sulfonamide]	–	–	2.5	18.9
CCN1CCOC(c2cc(OC)c(S(=O)(=O)Nc3noc4cc(Nc5cc(C6CC6)n[nH]5)c(OC)cc34)c(OC)c2)C1 (single isomer, unassigned) [Example 157, N-{6-[(3-cyclopropyl-1 H-pyrazol-5-yl)amino]-5-methoxy-1,2-benzoxazol-3-yl}-4-(4-ethylmorpholin-2-yl)-2,6-dimethoxybenzene-1-sulfonamide]	–	–	2.5	11.6
CCN1CCCC1c1cc(OC)c(S(=O)(=O)Nc2noc3cc(Nc4cc(C5CC5)[nH]n4)c(OC)cc23)c(OC)c1 (single isomer, unassigned) [Example 190, N-{6-[(5-cyclopropyl-1 H-pyrazol-3-yl)amino]-5-methoxy-1,2-benzoxazol-3-yl}-4-(1-ethylpyrrolidin-2-yl)-2,6-dimethoxybenzene-1-sulfonamide]	–	–	5.6	54.5
COc1cc2c(NS(=O)(=O)c3c(OC)cc(CN4CCCC(F)(F)C4)cc3OC)noc2cc1Nc1cc(C2CC2)n[nH]1 [Example 199, N-{6-[(3-cyclopropyl-1H-pyrazol-5-yl)amino]-5-methoxy-1,2-benzoxazol-3-yl}-4-[(3,3-difluoropiperidin-1-yl)methyl]-2,6-dimethoxybenzene-1-sulfonamide]	–	–	0.7	5.2
COc1cc2c(NS(=O)(=O)c3c(OC)cccc3OC)noc2cc1Nc1nc[nH]n1 [Example 61, 2,6-dimethoxy-N-{5-methoxy-6-[(1H-1,2,4-triazol-3-yl)amino]-1,2-benzoxazol-3-yl}benzene-1-sulfonamide]	–	–	0.2	54.7
COc1cc2c(NS(=O)(=O)c3c(OC)cc(C4CCCN([C@@H]5CCOC5)C4)cc3OC)noc2cc1Nc1cc(C2CC2)n[nH]1 (single isomer, unassigned) [Example 159]	–	–	1.1	7
COc1cccc(OC)c1S(=O)(=O)Nc1noc2cc(NC3CCCC3)cc(OC)c12 [Example 12, N-[6-(cyclopentylamino)-4-methoxy-1,2-benzoxazol-3-yl]-2,6-dimethoxybenzene-1-sulfonamide]	–	–	25.6	> 2340
COc1cc2c(NS(=O)(=O)c3c(OC)cc(C4CCN([C@@H]5CCOC5)C4)cc3OC)noc2cc1Nc1cc(C2CC2)n[nH]1 (single isomer, unassigned) [Example 160]	–	–	1	6.9
CCN1CCCCC1c1cc(OC)c(S(=O)(=O)Nc2noc3cc(Nc4cc(C5CC5)n[nH]4)c(OC)cc23)c(OC)c1 (single isomer, unassigned) [Example 173, N-{6-[(3-cyclopropyl-1 H-pyrazol-5-yl)amino]-5-methoxy-1,2-benzoxazol-3-yl}-4-(1-ethylpiperidin-2-yl)-2,6-dimethoxybenzene-1-sulfonamide]	–	–	7.5	114
COc1cc2c(NS(=O)(=O)c3c(OC)cc(C4CCCN(CC(F)F)C4)cc3OC)noc2cc1Nc1cc(C2CC2)n[nH]1 (single isomer, unassigned) [Example 168, N-{6-[(3-cyclopropyl-1 H-pyrazol-5-yl)amino]-5-methoxy-1,2-benzoxazol-3-yl}-4-[1-(2,2-difluoroethyl)piperidin-3-yl]-2,6-dimethoxybenzene-1-sulfonamide]	–	–	0.8	2.7
COc1cc2c(NS(=O)(=O)c3c(OC)cc(C4CN(C5CCOC5)C4)cc3OC)noc2cc1Nc1cc(C2CC2)n[nH]1 (racemic) [Example 187, N-{6-[(3-cyclopropyl-1H-pyrazol-5-yl)amino]-5-methoxy-1,2-benzoxazol-3-yl]-2,6-dimethoxy-4-[1-(oxolan-3-yl)azetidin-3-yl]benzene-1-sulfonamide]	–	–	2.2	13.1
COc1cccc(OC)c1S(=O)(=O)Nc1noc2cc(N[C@@H]3CCOC3)cc(OC)c12 [Example 13, 2,6-dimethoxy-N-(4-methoxy-6-{[(3R)-oxolan-3-yl]amino}-1,2-benzoxazol-3-yl)benzene-1-sulfonamide]	–	–	25.5	> 2340
CCN1CCCC1c1cc(OC)c(S(=O)(=O)Nc2noc3cc(Nc4cc(C5CC5)[nH]n4)c(OC)cc23)c(OC)c1 (single isomer, unassigned) [Example 191, N-{6-[(5-cyclopropyl-1 H-pyrazol-3-yl)amino]-5-methoxy-1,2-benzoxazol-3-yl}-4-(1-ethylpyrrolidin-2-yl)-2,6-dimethoxybenzene-1-sulfonamide]	–	–	2.3	15.4
COCc1cc(Nc2cc3onc(NS(=O)(=O)c4c(OC)cccc4OC)c3cc2OC)n(C)n1 [Example 60, 2,6-dimethoxy-N-(5-methoxy-6-{[3-(methoxymethyl)-1-methyl-1H-pyrazol-5-yl]amino}-1,2-benzoxazol-3-yl)benzene-1-sulfonamide]	–	–	> 377	> 12500
COc1cc2c(NS(=O)(=O)c3c(OC)cc(-c4ncc5c(n4)CN(C)CC5)cc3OC)noc2cc1Nc1cc(C2CC2)n[nH]1 [Example 225, N-{6-[(3-cyclopropyl-1 H-pyrazol-5-yl)amino]-5-methoxy-1,2-benzoxazol-3-yl}-2,6-dimethoxy-4-(7-methyl-5,6,7,8-tetrahydropyrido[3,4-d]pyrimidin-2-yl)benzene-1-sulfonamide]	–	–	0.6	7
COc1cc2c(NS(=O)(=O)c3c(OC)cccc3OC)noc2cc1Nc1[nH]nc2c1CNC2 [Example 49, 2,6-dimethoxy-N-{5-methoxy-6-[(2,4,5,6-tetrahydropyrrolo[3,4-c]pyrazol-3-yl)amino]-1,2-benzoxazol-3-yl}benzene-1-sulfonamide]	–	–	4	> 2340
COc1cc2c(NS(=O)(=O)c3ccccc3)noc2cc1Nc1ccn(C)n1 [Example 21, N-{5-methoxy-6-[(1-methyl-1H-pyrazol-3-yl)amino]-1,2-benzoxazol-3-yl}benzenesulfonamide]	–	–	7.9	625
COc1cc2c(NS(=O)(=O)c3c(OC)cc(C(=O)N4CCC[C@@H](F)C4)cc3OC)noc2cc1Nc1cc(C2CC2)n[nH]1 [Example 260, N-{6-[(3-cyclopropyl-1H-pyrazol-5-yl)amino]-5-methoxy-1,2-benzoxazol-3-yl}-4-[(3R)-3-fluoropiperidine-1-carbonyl]-2,6-dimethoxybenzene-1-sulfonamide]	1	6.7	–	–
